Laboratory results from patent publication US10220091B2, “Combination treatments with sonic hedgehog inhibitors” (The General Hospital Corporation, priority 2013, dated 2019).

How the values were obtained:
p-ERK = assay: Western blot of cell lysates, p-ERK; details: Colo38R, M21R and TPF-10-741 cells; vemurafenib 1 μM, sunitinib 3 μM, imatinib 20 μM
Method: A. Following an incubation at indicated time points at 37° C. cells were harvested and lysed. Cell lysates were analyzed by western blot with the indicated mAbs. β-actin-was used as a loading control. B. Following a 48 h incubation at 37° C. cells were harvested and lysed. Cell lysates were analyzed by western blot with the indicated mAbs. β-actin or Calnexin were used as a loading control. The results presented are representative of the results obtained in three independent experiments.
A. M21R and TPF-10-741 cells were transduced with PDGFRα-specific shRNA (#4) or with GFP-shRNA, used as a control, lentiviral particles. […] Following a three day incubation at 37° C. cells were harvested and lysed. Cell lysates were analyzed by western blot with the indicated mAbs. β-actin was used as a loading control. […] Cell proliferation was determined by MTT assay following a three day incubation at 37° C. Percentage of cell proliferation was calculated as the ratio of treated cells to untreated GFP-shRNA transduced cells. Data are expressed as mean±SD of the results obtained in three independent experiments. *** indicates P<0.01.
Following an incubation at indicated time points at 37° C. cells were harvested and lysed. Cell lysates were analyzed by western blot with the indicated mAbs. β-actin was used as a loading control. […]

[1] = test system: Colo38, Colo38R, M21, M21R and TPF-10-741 cells; assay: MTT dose titration of PDGFRα-I; format: cell-based; details: Homo sapiens; dose titration experiment, MTT assay, the 5 cell lines; read-out: IC50 doses
Method: MTT assay was carried out as reported elsewhere^2. […] All experiments were performed three independent times in triplicates.
A dose titration experiment established the dose of PDGFRα-I to be combined with vemurafenib in the 5 cell lines.

melanoma cells = assay: Overcoming BRAF-I resistance mediated by PDGFRβ upregulation; format: cell-based; details: as reported and as found by the applicant

SMILES | IC50 [1] [nM] | further results
CCCS(=O)(=O)Nc1ccc(F)c(C(=O)c2c[nH]c3ncc(-c4ccc(Cl)cc4)cc23)c1F [vemurafenib] |  | p-ERK levels (p-ERK): not inhibited
CC1(COc2ccc3c(c2)ncn3-c2ccc3cccc(N4CCC(N)CC4)c3n2)COC1 [crenolanib] | 1000 | 
Cc1ccc(NC(=O)c2ccc(CN3CCN(C)CC3)cc2)cc1Nc1nccc(-c2cccnc2)n1 [imatinib] |  | ability to overcome BRAF-I resistance mediated by PDGFRβ upregulation (melanoma cells): not able to overcome
CCN(CC)CCNC(=O)c1c(C)[nH]c(/C=C2\C(=O)Nc3ccc(F)cc32)c1C [sunitinib] | 2000 | 
